Data published in article PMC9630929 (Journal of medicinal chemistry, 2022).

Tests used:
[1] = Solubility observed in the AlphaScreen assay; assay type: physicochemical; settings: at tested concentrations
PC3 cells = settings: 0.1, 1, 10 μM; compound 7 up to 100 μM
SMARCA2 bromodomain [2] = settings: cited from earlier work
PBRM1-BD5 = settings: cited from earlier work
SMARCA2B bromodomain [3] = settings: cited from earlier work
[4] = system: LNCaP cells expressing shRNA against PBRM1 or vector control; assay type: cell-based, human; settings: 10 μM, 5 days
SMARCA2B bromodomain [5] = target: SMARCA2B bromodomain (Homo sapiens, UniProt P51531); assay type: binding; settings: DSF, 100 μM inhibitor, 10 μM bromodomain
Sequence of SMARCA2B bromodomain (Homo sapiens, UniProt P51531) (P51531 1373-1493 isoform P51531-2 limits assumed): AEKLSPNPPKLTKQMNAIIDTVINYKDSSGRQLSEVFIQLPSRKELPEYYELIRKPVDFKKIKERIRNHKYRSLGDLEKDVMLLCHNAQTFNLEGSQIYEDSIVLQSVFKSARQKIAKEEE

SMARCA2 bromodomain [6] = settings: DSF; cited from earlier work
[7] = system: other tested bromodomains; settings: DSF, 100 μM inhibitor, 10 μM bromodomain

Cc1cc(C)c(C2NC(=O)c3c(Cl)cccc3N2)c(C)c1 (centres unmarked) [Compound 22, 5-Chloro-2-(2,4,6-trimethylphenyl)-2,3-dihydroquinazolin-4(1H)-one]
solubility in the AlphaScreen assay [1]: solubility issues

Cc1cccc(C2NC(=O)c3c(Br)cccc3N2)c1 (centres unmarked) [Compound 34, 5-Bromo-2-(3-methylphenyl)-2,3-dihydroquinazolin-4(1H)-one]
growth inhibition of PC3 cells (PC3 cells): do not inhibit the growth

CN(C)/C=C1\CCn2c1nc(=O)c1c(Cl)cccc12 [Compound 2, (E)-6-Chloro-3-((dimethylamino)methylene)-2,3-dihydropyrrolo[1,2-a]quinazolin-5(1H)-one]
binding toward SMARCA2 bromodomain (SMARCA2 bromodomain [2]): nanomolar binding | binding toward PBRM1-BD5 (PBRM1-BD5): nanomolar binding

O=C(/C=C/N1C[C@H]2C[C@@H]1CN2c1ccccn1)c1ccccc1O [PFI-3]
binding toward SMARCA2 bromodomain (SMARCA2 bromodomain [2]): nanomolar binding | binding toward PBRM1-BD5 (PBRM1-BD5): nanomolar binding

CCC(CC)C1CC12CCn1c2nc(=O)c2c(Cl)cccc21 (centres unmarked) [LM146]
binding toward SMARCA2B bromodomain (SMARCA2B bromodomain [3]): low micromolar affinity

Cc1cccc(C2NC(=O)c3c(Cl)cccc3N2)c1 (centres unmarked) [Compound 16, 5-Chloro-2-(3-methylphenyl)-2,3-dihydroquinazolin-4(1H)-one]
effect on LNCaP viability with native PBRM1 vs PBRM1 knockdown [4]: more significant effect on LNCaP viability in cells with native PBRM1 levels than in cells with PBRM1 knockdown | growth inhibition of PC3 cells (PC3 cells): do not inhibit the growth | SMARCA2B ΔTm (SMARCA2B bromodomain [5]): did not exhibit detectable thermal stabilization

CCC(/C=C1\CCn2c1nc(=O)c1c(Cl)cccc12)CC [Compound 7, (E)-6-Chloro-3-(2-ethylbutylidene)-2,3-dihydropyrrolo[1,2-a]quinazolin-5(1H)-one]
growth inhibition of PC3 cells (PC3 cells): more substantial inhibition | ΔTm SMARCA2 bromodomain (SMARCA2 bromodomain [6]): > 2.5 °C

Cc1ccccc1C1NC(=O)c2c(Cl)cccc2N1 (centres unmarked) [Compound 15, 5-Chloro-2-(2-methylphenyl)-2,3-dihydroquinazolin-4(1H)-one]
thermal stabilization of the other tested bromodomains (ΔTm) [7]: < 1 °C | SMARCA2B ΔTm (SMARCA2B bromodomain [5]): did not exhibit detectable thermal stabilization
